How the values were obtained:
[1] = system: PDCs (T2-4, T12-1, T12-2) and GSC2 cells; assay: Limiting dilution assay (self-renewal); assay type: cell-based; conditions: pretreatment for 4 h
Description: For the tumor sphere formation assay, cells were inoculated in 96-well plates at 600 cells/well in a volume of 100 μL. The tumor spheres with a diameter of 50–100 μm and a diameter of over 100 μm were counted separately under a microscope after 14 days. For the limiting dilution assay, cells were dissociated to generate a single-cell suspension, which was diluted along a gradient for seeding in a 96-well plate at concentrations ranging from 400 cells to 25 cells in a volume of 100 μL per well.

[2] = system: subcutaneous glioma PDX; assay: Subcutaneous PDX model of glioma (GBM1); assay type: in vivo, nude mice
Description: Fig. 2 The BBB permeability and tumor suppressor ability of GA-amide compared with TMZ. GA-amide (a) or TMZ (b) concentration in the tumor area and normal brain tissue following a single injection of GA-amide (10 mg/kg, i.v.) or TMZ (10 mg/kg, i.v.). The data are presented as the means ± SEMs (n = 3). c Western blot analysis of the expression of TrkA in mouse tumor tissues (T) and normal brain tissues (N), n = 4. d Western blot analysis of glycosylated TrkA expression in human normal brain tissues (N) and glioma tissues of different grades. e Time curve of GA-amide and TMZ treatment in a cell viability assay (MTS) in T2-4, GSC2 and T12-1 cells. f–h A PDX mouse model was established, and the mice were treated with vehicle (control, n = 9), 2 mg/kg GA-amide (n = 9), 2 mg/kg GAC (n = 9) or […] TMZ (n = 8) by i.p. injection daily for 10 days. A summary photograph is presented in (f), statistical results in (g) and the body weights of mice in (h); the mean ± SEMs are shown. n.s: P ≥ 0.05, *P < 0.05, **P < 0.01 and ***P < 0.001 compared with the control group by one-way ANOVA at each time point
Male nude mice aged 5–6 weeks were selected for establishment of the in vivo glioma mouse models. For the PDX models, the tumor sample will be soaked in HBSS solution on ice and transferred from the hospital to the laboratory. Patient-related information was shown in Supplementary Table 4). For the subcutaneous PDX models, the isometric fresh GBM tumor (GBM1) specimens were implanted s.c. into the flank of a nude mouse. Then, the mice were treated with GA-amide (2 mg/kg i.p.), gambogic acid (2 mg/kg i.p.), TMZ (65 mg/kg i.p., Selleck) or vehicle after the tumors grew to 100 mm^3. The mouse body weights were measured, and tumor volumes were calculated using the formula L × W^2/2. After treatment, the xenografts were harvested and photographed.

[3] = Acute toxicity assay, mice serum biochemical indexes; assay type: in vivo
[4] = system: WDR1 deficient U87MG-SLC cells; assay: sgWDR1 U87MG-SLC subcutaneous xenograft; assay type: in vivo, nude mice; conditions: 2 mg/kg i.p. once daily for 10 days
[5] = system: F-actin; assay: F-actin staining and G-actin/F-actin assay in T2-4 cells; assay type: cell-based; conditions: 0.3 μM, 4 h, 8 h and 12 h
Description: F-actin isolation was performed according to the instructions of the G-actin/F-actin assay (Cytoskeleton, Inc.). Briefly, cells were lysed in LAS2 buffer (Cytoskeleton, Inc.). The lysates were centrifuged (5 min at 1000 rpm) to pellet undisrupted cells, and then 100 µl of the supernatant was ultracentrifuged at 37 °C (100,000 × g) for 1 h to separate F-actin from soluble G-actin. The F-actin pellet was solubilized by incubation in 100 μL of F-actin depolymerization buffer for 1 h. The soluble F-actin and G-actin fractions were subsequently analyzed by immunoblotting with a mouse monoclonal anti-actin antibody (Cytoskeleton, Inc.).
Representative images of three wells are shown, and the scale bar represents 500 μm. h The apoptosis assay was conducted on T2-4 cells treated with DMSO, GA-amide (0.3 μM), jas (50 nM), and jas (50 nM jas was pretreated for 12 hours) in combination with GA-amide (0.3 μM) for 4 hours. The data were presented as the mean ± SEM (n = 3) and analyzed using one-way ANOVA analysis. Statistical significance is denoted as *P <0.05, **P <0.01, and ***P <0.001.

[6] = system: infarct; conditions: subcutaneous injection of 2 mg/kg; cited from earlier work

## CC(C)=CCC[C@]1(C)C=Cc2c(O)c3c(c(CC=C(C)C)c2O1)O[C@]12C(=C[C@@H]4CC1C(C)(C)O[C@@]2(C/C=C(/C)C(N)=O)C4=O)C3=O [GA-amide, gambogic amide]
[1]
  self-renewal (limiting dilution): suppressed
[2]; 2 mg/kg i.p. daily for 10 days
  body weight of mice: did not cause the loss of body weight
  tumor volume versus control: significantly decreased compared with those in the control group
[2]; PDX tumors at endpoint, 10 days treatment
  Ki67, CD133 and cleaved caspase3 in tumor sections (immunohistology): decreased expression of Ki67 and the GSC marker prominin 1 (CD133) as well as an increased level of cleaved caspase3
[2]; after GA-amide treatment
  histology of liver, kidney and small intestine (H&E): no discernible abnormalities
[3]; 1mg/kg one-time i.v.
  ALB (albumin): 19.5 ± 2.4 g/L
  ALP (alkaline phosphatase): 214±36 U/L
  ALT (alanine aminotransferase): 26±2 U/L
  AST (aspartate aminotransferase): 99±20 U/L
  CA (calcium): 2.53 ± 0.12 mmol/L
  CHE (cholinesterase): 7909±1092 U/L
  CK (creatine kinase): 910±503 U/L
  CRE (creatinine): 11.1 ± 1.1 µmol/L
  Cl: 112.0 ± 2.2 mmol/L
  GGT (Gammagliutamyltranspherase): -1±1 U/L
  GLU (glucose): 8.21 ± 3.50 mmol/L
  K: 5.99 ± 0.84 mmol/L
  NA: 147.4 ± 1.5 mmol/L
  TBA (total bile acid): 8.6 ± 6.4 µmol/L
  TBIL (total bilirubin): 3.3 ± 0.5 µmol/L
  TCHO (total cholesterol): 4.34 ± 1.10 mmol/L
  TG (triglyceride): 1.30 ± 0.29 mmol/L
  TP (total protein): 54.5 ± 6.7 g/L
  UREA: 8.11 ± 1.58 mmol/L
[3]; 10mg/kg one-time i.v.
  ALB (albumin): 20.0 ± 0.9 g/L
  ALP (alkaline phosphatase): 217±33 U/L
  ALT (alanine aminotransferase): 37±12 U/L
  AST (aspartate aminotransferase): 113±22 U/L
  CA (calcium): 2.54 ± 0.07 mmol/L
  CHE (cholinesterase): 7828±721 U/L
  CK (creatine kinase): 1157±539 U/L
  CRE (creatinine): 10.9 ± 0.6 µmol/L
  Cl: 111.5 ± 1.7 mmol/L
  GGT (Gammagliutamyltranspherase): -1±1 U/L
  GLU (glucose): 5.61 ± 0.60 mmol/L
  K: 5.97 ± 0.33 mmol/L
  NA: 147.7 ± 2.0 mmol/L
  TBA (total bile acid): 7.9 ± 4.5 µmol/L
  TBIL (total bilirubin): 3.8 ± 1.0 µmol/L
  TCHO (total cholesterol): 4.75 ± 0.93 mmol/L
  TG (triglyceride): 1.62 ± 0.48 mmol/L
  TP (total protein): 55.5 ± 1.8 g/L
  UREA: 8.62 ± 1.32 mmol/L
[4]
  tumor growth of WDR1 deficient xenograft: could not inhibit the tumor growth
[5]
  F-actin content: decreased content of F-actin at the cell edge
[6]
  infarct volume: significantly reduce the infarct volume
